Results reported in ChEMBL document CHEMBL4196003, “The selectivity and bioavailability improvement of novel oral anticoagulants: An overview” (Eur J Med Chem, 2018).
Converted amounts (≈) assume the structure as drawn. Each block holds one compound with its values, some of them ahead of it.

Legend:
[1] = tested on: Plasma; type: functional, Homo sapiens
Description: Anticoagulant activity in human plasma assessed as concentration required to double activated partial thromboplastin time

[2] = biological target: T1, Coagulation factor X (Homo sapiens, UniProt P00742)
[3] = biological target: T2, Trypsin (Homo sapiens, UniProt P07477+P07478+P35030); type: protein assay
Description: Inhibition of trypsin (unknown origin)

[4] = in vivo; settings: dog, po, 1 mg/kg
Description: Half life in dog at 1 mg/kg, po

[5] = biological target: T2, Trypsin; type: protein assay; remark: listed apart in the source
Description: Inhibition of human trypsin assessed as release of p-nitroanilide from chromogenic substrate

[6] = physchem; settings: buffer, pH 7.4
Description: Aqueous solubility at pH 7.4

[7] = biological target: T3, Prothrombin (Homo sapiens, UniProt P00734)
Description: Binding affinity to thrombin (unknown origin)

[8] = biological target: T3, Prothrombin; remark: listed apart in the source
[9] = biological target: T4, Coagulation factor VII/tissue factor (Homo sapiens, UniProt P08709); type: protein-complex assay
[10] = biological target: T1, Coagulation factor X; remark: listed apart in the source
[11] = biological target: T4, Coagulation factor VII/tissue factor; type: protein-complex assay; remark: listed apart in the source
[12] = biological target: T3, Prothrombin; remark: listed apart in the source
[13] = cynomolgus monkey, plasma, iv, 0.4 mg/kg
Description: Plasma concentration in cynomolgus monkey at 400 ug/kg/min, iv

[14] = cynomolgus monkey, plasma, iv, 0.06 mg/kg
Description: Plasma concentration in cynomolgus monkey at 60 ug/kg/min, iv

T4 sequence (P08709 61-212 limits assumed): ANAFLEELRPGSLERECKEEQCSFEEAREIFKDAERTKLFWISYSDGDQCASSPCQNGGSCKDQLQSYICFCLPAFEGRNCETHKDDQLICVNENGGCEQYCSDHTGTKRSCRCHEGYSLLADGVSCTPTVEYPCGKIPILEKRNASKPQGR
T4 sequence (P08709 213-466 limits assumed): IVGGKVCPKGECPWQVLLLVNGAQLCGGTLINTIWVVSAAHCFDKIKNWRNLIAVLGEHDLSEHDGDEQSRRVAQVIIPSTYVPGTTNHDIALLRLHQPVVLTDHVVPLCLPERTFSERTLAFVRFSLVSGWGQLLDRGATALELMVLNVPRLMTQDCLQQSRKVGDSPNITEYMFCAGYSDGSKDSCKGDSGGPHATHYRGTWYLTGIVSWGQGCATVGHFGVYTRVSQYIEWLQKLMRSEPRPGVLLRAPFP
T4 sequence (P13726 33-295 partner limits assumed): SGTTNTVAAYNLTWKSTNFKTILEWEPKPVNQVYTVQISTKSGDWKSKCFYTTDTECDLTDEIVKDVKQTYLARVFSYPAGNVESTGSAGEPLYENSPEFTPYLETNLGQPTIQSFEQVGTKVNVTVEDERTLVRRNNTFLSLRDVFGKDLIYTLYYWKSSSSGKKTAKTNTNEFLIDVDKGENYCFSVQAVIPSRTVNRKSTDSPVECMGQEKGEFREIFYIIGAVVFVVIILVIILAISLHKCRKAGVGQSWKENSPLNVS
T1 sequence (P00742 41-179 limits assumed): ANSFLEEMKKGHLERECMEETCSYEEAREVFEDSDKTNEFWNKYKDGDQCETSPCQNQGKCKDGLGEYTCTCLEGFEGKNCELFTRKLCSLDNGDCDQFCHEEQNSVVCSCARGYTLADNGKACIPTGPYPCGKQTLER
T1 sequence (P00742 235-488 limits assumed): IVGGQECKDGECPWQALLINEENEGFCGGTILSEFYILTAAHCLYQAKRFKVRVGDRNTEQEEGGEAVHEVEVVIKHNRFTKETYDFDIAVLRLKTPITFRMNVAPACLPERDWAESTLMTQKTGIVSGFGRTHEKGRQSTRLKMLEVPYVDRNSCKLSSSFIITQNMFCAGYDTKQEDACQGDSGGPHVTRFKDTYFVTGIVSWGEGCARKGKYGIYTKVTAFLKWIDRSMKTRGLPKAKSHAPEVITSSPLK

SMILES: O=C(Cn1c(Cl)cnc(NCC(F)(F)c2cccc[n+]2[O-])c1=O)NCc1cc(Cl)ccc1-n1cnnn1
2aPTT [1]: 130 nM

SMILES: O=C(Cn1c(Cl)cnc(NCC(F)(F)c2ccccn2)c1=O)NCc1cc(Cl)ccc1-n1cncn1
2aPTT [1]: 170 nM

IC50 [2]: > 30 µM
SMILES: CC(C)Nc1ccc(-c2cccc(N)c2)c(CC(=O)NCc2ccc(C(=N)N)cc2)c1F

SMILES: Cc1cnc(NCC(F)(F)c2ccccn2)c(=O)n1CC(=O)NCc1ncccc1F
2aPTT [1]: 670 nM | Ki [3]: 252 µM

SMILES: N#Cc1cnc(NCC(F)(F)c2ccccn2)c(=O)n1CC(=O)NCc1ncccc1F
half-life [4]: 6.6 to 9.7 h | 2aPTT [1]: 410 nM | Ki [3]: 213 µM

SMILES: Cc1nc(N)ccc1CNC(=O)Cn1c(C)cnc(NCC(F)(F)c2ccccn2)c1=O
2aPTT [1]: 200 nM | Ki [3]: 0.8 µM

Ki [5]: 95 µM
SMILES: Cc1cnc(NCCc2ccccc2)c(=O)n1CC(=O)NCc1cc2cc[nH]c2cn1

SMILES: O=C(Cn1c(Cl)cnc(NCC(F)(F)c2cccc[n+]2[O-])c1=O)NCc1ccccc1F
2aPTT [1]: 400 nM

SMILES: O=C(Cn1c(Cl)cnc(NCC(F)(F)c2cccc[n+]2[O-])c1=O)NCc1ncccc1Cl
2aPTT [1]: 470 nM

SMILES: O=C(Cn1c(Cl)cnc(NCC(F)(F)c2cccc[n+]2[O-])c1=O)NCc1ncccc1F
solubility [6]: 44 µg/mL (≈ 93.9 µM) | 2aPTT [1]: 540 nM

SMILES: O=C(Cn1c(Cl)cnc(NCC(F)(F)c2ccccn2)c1=O)NCc1cc(Cl)ccc1-n1cnnn1
Ki [7]: 1.4 to 1.5 pM | 2aPTT [1]: 180 nM

SMILES: O=C(Cn1c(Cl)cnc(NCC(F)(F)c2cccc[n+]2[O-])c1=O)NCc1cc(Cl)ccc1-n1cncn1
2aPTT [1]: 200 nM

Ki [5]: 200 µM
SMILES: Cc1cnc(NCCc2ccccn2)c(=O)n1CC(=O)NCc1cc2cc[nH]c2cn1

Ki [5]: 290 µM
SMILES: Cc1cnc(NCCc2ccccn2)c(=O)n1CC(=O)NCc1ccc2[nH]ccc2c1

IC50 [8]: 100 µM | IC50 [9]: 0.2 µM
SMILES: N=C(N)NCCC[C@H](NC(=O)[C@H](Cc1cccnc1)NC(=O)[C@H](Cc1ccccc1)NS(=O)(=O)c1ccccc1)C(=O)c1nccs1

IC50 [10]: 90 µM | IC50 [11]: 2.6 µM
SMILES: O=c1oc(-c2ccccc2F)nc2cnccc12

IC50 [12]: 129 µM | IC50 [10]: > 200 µM | IC50 [11]: 18 µM
SMILES: Cc1ccccc1-c1nc2c(cnn2C)c(=O)o1

IC50 [12]: 14.4 µM | IC50 [10]: 32 µM | IC50 [11]: 2.8 µM
SMILES: O=c1oc(-c2ccccc2F)nc2ncccc12

IC50 [12]: 134 µM | IC50 [10]: 174 µM | IC50 [11]: 1.4 µM
SMILES: O=c1oc(-c2c(F)cccc2F)nc2cc(C(F)(F)F)ccc12

IC50 [12]: > 200 µM | IC50 [10]: > 200 µM | IC50 [11]: 1.3 µM
SMILES: O=c1oc(-c2c(F)cccc2F)nc2cnccc12

IC50 [11]: > 200 µM
SMILES: O=c1oc(-c2ccccc2F)nc2nccnc12

IC50 [12]: > 200 µM | IC50 [10]: 112 µM | IC50 [11]: 0.82 µM
SMILES: O=c1oc(-c2c(F)cccc2F)nc2cc([N+](=O)[O-])ccc12

IC50 [12]: > 200 µM | IC50 [10]: > 200 µM | IC50 [11]: 15 µM
SMILES: CCSc1ncc2c(=O)oc(-c3ccccc3F)nc2n1

Ki [5]: > 100 µM
SMILES: Cc1cnc(NCCc2ccccc2)c(=O)n1CC(=O)NCc1ccc2[nH]ccc2c1

IC50 [2]: > 100 µM | Cp [13]: 107 µg/mL
SMILES: CC(C)Nc1nc(Cl)c(-c2cc(N)cc(C(=O)O)c2)n(CC(=O)NCc2ccc(C(=N)N)cc2)c1=O

SMILES: O=C(Cn1c(Cl)cnc(NCC(F)(F)c2ccccn2)c1=O)NCc1ncccc1F [DPOC-4088]
half-life [4]: 6.6 to 9.7 h | solubility [6]: 11 µg/mL (≈ 24.3 µM) | 2aPTT [1]: 780 nM | Ki [3]: 202 µM

Ki [5]: 3.2 µM
SMILES: Cc1nc(N)ccc1CNC(=O)Cn1c(C)ccc(NS(=O)(=O)Cc2ccccc2)c1=O [L-374087]

Cp [14]: 3 µg/mL
SMILES: Cc1nc(N)ccc1CNC(=O)Cn1c(C)cnc(NCCc2ccccc2)c1=O [L-375378]
